One series is described as follows: physchem. Conditions: pH 7, aqueous buffer, kinetic from dmso stock.
A further series can be described thus: in vitro. The note with it: human, pH 7.4; for half-life: microsomes.
Series [1] can be described thus: High throughput solubility assay (kinetic, UV). Conditions: pH 7.
Experimental: (§1) Compound solubility is determined in a high-throughput kinetic solubility profiling method using a 96-well format. Compound solubility is assessed using a UV/Visible Microplate Spectrophotometer (Molecular Devices SpectraMax Plus384). Vorinostat (SAHA) and Nicardipine, purchased from Sigma, are used as reference standards.
(§2) The mixture is then shaken at 600 rpm for 1.5 h and allowed to stand at room temperature for 2 h. […] The resulting supernatant (80 μL) is transferred to the UV-analysis plate and diluted with DMSO (20 μL). The samples are quantified using calibration stocks of the respective compound made in phosphate buffer/DMSO (80:20).

Values after ≈ are worked out from the molar mass of the structure shown. Read-outs that look alike come from different tables or passages of the source. Some results are limits rather than exact numbers.

The results in this text go back to US9138437B2, “Pyrimidine substituted purine compounds as kinase (S) inhibitors” (VERASTEM, INC., priority 2009, dated 2015).

Experimental for in vitro: Verapamil, purchased from Sigma-Aldrich, is used as a reference standard in the assay. HLM are purchased from Xeno Tech (20 mg/mL in 250 mM sucrose solution). A 100 mM stock solution of potassium phosphate buffer is pre-prepared by combining 80 mL of 1M K2HPO4 and 20 mL of 1 M KH2PO4 in 900 mL of water (pH adjusted to 7.4 using diluted HCl) and stored at room temperature. K2HPO4.3H20 and KH2PO4 are obtained from Sigma Aldrich and the NADPH Regeneration System Solutions A and B from Gentest. The stop solution used to quench the reaction is a pre-prepared mixture of acetonitrile and DMSO (80:20) and is stored at 4° C. All solvents used are HPLC grade and the water used during the stock solution preparation and during LC-MS analysis is deionised using a Milli-Q system.
8 μL of the compound mix is then added to 72 μL of a pre-prepared incubation mix made up of water (2250 μL), 100 mM potassium phosphate buffer (2900 μL), NADPH Regeneration System Solution B (58 μL), NADPH Regeneration System Solution A (290 μL) and HLM (250 μL). The resulting reaction mixture (final compound concentration of 5 μM) is then incubated at 37° C. in a B. Braun Certomat H incubator after which a 50 μL aliquot is dispensed to a well on a separate plate well containing 100 μL of Stop solution. […] Each test compound is sampled multiple times and incubated for a series of time points (5, 15, 30, 45 and 60 min). Remaining compound concentration is determined by LC-MS (ABI Qtrap 3200) and comparison to a reference solution of known concentration. Stability is then expressed as a half-life in minutes (t½).
Experimental for physchem: as §1, §2

Regarding `CCC(C)n1c(Br)nc2c(-c3cnc(N)nc3)nc(N3CCOCC3)nc21` (stereo not shown) [Cmpd A], the solubility (usually the dissolved amount per volume that the medium holds) in “physchem” came to 44 µM (≈ 19.1 µg/mL). For the same compound, the half-life – broadly, how long it takes for the measured level to halve – in the series “in vitro” was > 60 min. Further, the “solubility, assessment in words” value (as drug candidate) is recorded as “low solubility”.

For the compound `Cc1nc2c(-c3cnc(N)nc3)nc(N3CCOCC3)nc2n1C(C)C` [Cmpd of the invention, 5-(9-isopropyl-8-methyl-2-morpholin-4-yl-9H-purin-6-yl)-pyrimidin-2-ylamine], the “solubility, assessment in words” value (pH 7) is on record as “acceptable”.

As to `CCC(C)n1c(C)nc2c(-c3cnc(N)nc3)nc(N3CCOCC3)nc21` (stereo not shown) [Cmpd D], the solubility in “physchem” is > 250 µM. Further, in “in vitro”, the half-life came to 26 min. Further, the “solubility, assessment in words” value (as drug candidate) is “acceptable”.

In the case of `CCc1nc2c(-c3cnc(N)nc3)nc(N3CCOCC3)nc2n1C(C)C` [Cmpd C], the solubility in the series “physchem” was > 250 µM. In “in vitro”, this compound came in with a half-life of 36 min. In addition, where the note is “as drug candidate”, the “solubility, assessment in words” value was “acceptable”.

For `CCC(C)n1cnc2c(-c3cnc(N)nc3)nc(N3CCOCC3)nc21` (stereo not shown) [Cmpd E], the concentration in solution in “physchem” (solubility) came to 35 µM (≈ 12.4 µg/mL). For the same compound, in the series “in vitro”, the half-life was > 60 min. For the same compound, under “as drug candidate”, the “solubility, assessment in words” value is recorded as “low solubility”.

In turn, `CC(C)n1c(Br)nc2c(-c3cnc(N)nc3)nc(N3CCOCC3)nc21` [Cmpd B] showed a solubility in the series “physchem” of 18 µM (≈ 7.55 µg/mL). Further, in series [1], the “solubility, assessment in words” value is listed as “low solubility”. Also, in “in vitro” (liver microsomes), the half-life at 5 μM was > 60 min.
